# The source made the active and inactive calls. No rule for the calls is given here.
# System: CCRIS mutagenicity, Ames/micronucleus/aberration tests
# Experiment: CCRIS mutagenicity studies
# [1] = Test System: AMES SALMONELLA TYPHIMURIUM, Strain/Indicator: TA98, Metabolic Activation: RAT, LIVER, S-9, AROCLOR 1254, Method: STANDARD PLATE
# [2] = Test System: AMES SALMONELLA TYPHIMURIUM, Strain/Indicator: TA98, Metabolic Activation: NONE, Method: STANDARD PLATE
# [3] = Test System: AMES SALMONELLA TYPHIMURIUM, Strain/Indicator: TA100, Metabolic Activation: NONE, Method: STANDARD PLATE
smiles,measurement,setting,value
Cc1nc2c(C)cc3c(nc(N)n3C)c2nc1C,mutagenic call,[1],active; positive
CN(C)c1ccc(C(=C2C=CC(=N)C=C2)c2ccc(N(C)C)cc2)cc1,mutagenic call,"Test System: AMES SALMONELLA TYPHIMURIUM, Strain/Indicator: TA97, Metabolic Activation: NONE, Method: STANDARD PLATE",inactive; negative
same,mutagenic call,"Test System: AMES SALMONELLA TYPHIMURIUM, Strain/Indicator: TA97, Metabolic Activation: RAT, LIVER, S-9, AROCLOR 1254, Method: STANDARD PLATE",inactive; negative
same,mutagenic call,[2],inactive; negative
same,mutagenic call,[1],inactive; negative
same,mutagenic call,[3],inactive; negative
same,mutagenic call,"Test System: AMES SALMONELLA TYPHIMURIUM, Strain/Indicator: TA100, Metabolic Activation: RAT, LIVER, S-9, AROCLOR 1254, Method: STANDARD PLATE",inactive; negative
same,mutagenic call,"Test System: AMES SALMONELLA TYPHIMURIUM, Strain/Indicator: TA104, Metabolic Activation: NONE, Method: STANDARD PLATE",inactive; negative
same,mutagenic call,"Test System: AMES SALMONELLA TYPHIMURIUM, Strain/Indicator: TA104, Metabolic Activation: RAT, LIVER, S-9, AROCLOR 1254, Method: STANDARD PLATE",inactive; negative
C=CCOC(=O)c1ccccc1N,mutagenic call,"Test System: AMES SALMONELLA TYPHIMURIUM, Strain/Indicator: TA98, Metabolic Activation: HAMSTER, LIVER, S-9, AROCLOR 1254 (10%), Method: PREINCUBATION",inactive; negative
same,mutagenic call,"Test System: AMES SALMONELLA TYPHIMURIUM, Strain/Indicator: TA98, Metabolic Activation: NONE, Method: PREINCUBATION",inactive; negative
same,mutagenic call,"Test System: AMES SALMONELLA TYPHIMURIUM, Strain/Indicator: TA98, Metabolic Activation: RAT, LIVER, S-9, AROCLOR 1254 (10%), Method: PREINCUBATION",inactive; negative
same,mutagenic call,"Test System: AMES SALMONELLA TYPHIMURIUM, Strain/Indicator: TA100, Metabolic Activation: HAMSTER, LIVER, S-9, AROCLOR 1254 (10%), Method: PREINCUBATION",inactive; negative
same,mutagenic call,"Test System: AMES SALMONELLA TYPHIMURIUM, Strain/Indicator: TA100, Metabolic Activation: NONE, Method: PREINCUBATION",inactive; negative
same,mutagenic call,"Test System: AMES SALMONELLA TYPHIMURIUM, Strain/Indicator: TA100, Metabolic Activation: RAT, LIVER, S-9, AROCLOR 1254 (10%), Method: PREINCUBATION",inactive; negative
same,mutagenic call,"Test System: AMES SALMONELLA TYPHIMURIUM, Strain/Indicator: TA1535, Metabolic Activation: HAMSTER, LIVER, S-9, AROCLOR 1254 (10%), Method: PREINCUBATION",inactive; negative
same,mutagenic call,"Test System: AMES SALMONELLA TYPHIMURIUM, Strain/Indicator: TA1535, Metabolic Activation: NONE, Method: PREINCUBATION",inactive; negative
same,mutagenic call,"Test System: AMES SALMONELLA TYPHIMURIUM, Strain/Indicator: TA1535, Metabolic Activation: RAT, LIVER, S-9, AROCLOR 1254 (10%), Method: PREINCUBATION",inactive; negative
same,mutagenic call,"Test System: AMES SALMONELLA TYPHIMURIUM, Strain/Indicator: TA1537, Metabolic Activation: HAMSTER, LIVER, S-9, AROCLOR 1254 (10%), Method: PREINCUBATION",inactive; negative
same,mutagenic call,"Test System: AMES SALMONELLA TYPHIMURIUM, Strain/Indicator: TA1537, Metabolic Activation: NONE, Method: PREINCUBATION",inactive; negative
same,mutagenic call,"Test System: AMES SALMONELLA TYPHIMURIUM, Strain/Indicator: TA1537, Metabolic Activation: RAT, LIVER, S-9, AROCLOR 1254 (10%), Method: PREINCUBATION",inactive; negative
COc1cc(N=Nc2c(Br)cc([N+](=O)[O-])cc2[N+](=O)[O-])c(NC(C)=O)cc1N(CCOC(C)=O)CCOC(C)=O,mutagenic call,"End Point: IN VITRO CHROMOSOMAL ABERRATIONS, Test System: CHL CELLS, Metabolic Activation: NONE",active; positive (structural changes)
[N-]=[N+]=N[C@@H](c1ccccc1)[C@H](O)CO,mutagenic call,"Test System: AMES SALMONELLA TYPHIMURIUM, Strain/Indicator: TA100, Metabolic Activation: RAT, LIVER, S-9, PCB, Method: PREINCUBATION",active; positive
CCC1(C)CO1 (stereo not drawn),mutagenic call,[2],inactive; negative
same,mutagenic call,[3],inactive; negative
CCCCCCCCOC[N+](C)(C)Cc1ccccc1,mutagenic call,"Test System: BACILLUS SUBTILIS, Strain/Indicator: H17/REC, Metabolic Activation: NONE, Method: STANDARD PLATE",inactive; negative
same,mutagenic call,"Test System: BACILLUS SUBTILIS, Strain/Indicator: M45, Metabolic Activation: NONE, Method: STANDARD PLATE",inactive; negative
NC(=O)N/N=C/c1ccco1,mutagenic call,"Test System: E. COLI, Strain/Indicator: WP2 UVRA, Metabolic Activation: NONE, Method: SPOT",active; positive
